The values below come from US7718767B2, “3-ether and 3-thioether substituted cyclosporin derivatives for the treatment and prevention of hepatitis C infection” (Scynexis, Inc., priority 2006, dated 2010).

The test system of series [1] is HCV RNA replicon ET. The experiment in a line: HCV RNA replicon luciferase reporter assay, antiviral activity. The class given is cell-based. Particulars: ET replicon cells, 72 h, LUC activity; for EC90: concentration reducing viral replication by 90%; for EC50: concentration reducing viral replication by 50%. On the technique in general: A replicon is a self-replicating genome or part of one, used to study replication in cells.

Series [2] has as its system human hepatoma cell line ET. Nature of the series: Cytotoxicity in the replicon cell line, colorimetric assay of cell numbers. Particulars: ET cells, 72 h; for IC50: read-out: Cytotoxicity IC50, concentration inhibiting cell viability by 50%; for IC90: read-out: Cytotoxicity IC90, concentration inhibiting cell viability by 90%. The source says:
Compounds were examined in the human hepatoma cell line ET (lub ubi heo/ET), a HCV RNA replicon containing a stable luciferase (LUC) reporter. The HCV RNA replicon ET contains the 5′ end of HCV (with the HCV Internal Ribosome Entry Site (IRES) and the first few amino acids of the HCV core protein) which drives the production of a firefly luciferase (LUC), ubiquitin, and neomycin phosphotransferase (NeoR) fusion protein. Ubiquitin cleavage releases the LUC and NeoR proteins. The EMCV IRES element controls the translation of the HCV […] NS3-NS5. The NS3 protein cleaves the HCV polyprotein to release the mature NS3, NS4A, NS4B, NS5A and NS5B proteins that are required for HCV replication. At the 3′ end of the replicon is the authentic 3′ NTR of HCV. The activity of the LUC reporter is directly proportional to HCV replication levels and positive-control antiviral compounds produce a reproducible antiviral response using the LUC endpoint.
The compounds were dissolved in DMSO at five half-log concentrations each, ranging from either 0.02 to 2.0 μM, 0.03 to 3 μM, […], or 1 to 100 μM. Subconfluent cultures of the ET line were plated out into 96 well plates dedicated for the analysis of cell numbers (cytotoxicity) or antiviral activity and the next day the compounds were added to the appropriate wells. The cells were processed 72 h later when the cells were still subconfluent. […] The activity of the LUC reporter is directly proportional to HCV RNA levels in the human cell line. The HCV-replicon assay was validated in parallel experiments using interferon-alpha-2b as a positive control.

Series [3] concerns HIV-1IIIB. The experiment in a line: HIV MTS cytoprotection assay in CEM-SS cells. Particulars: 6 days post-infection, concentration inhibiting virus replication by 50%. In kind it is cell-based, human immunodeficiency virus-1. (Tetrazolium assays rely on reduction of a dye to a coloured formazan, in cell work by metabolically active cells.)

Counter-ions that a name gives are not always drawn. Where only a bound is given, the exact number is not on record here.

On to `CC=CCC(C)C(O)C1C(=O)NC(CC)C(=O)N(C)C(SCCN(C)C)C(=O)N(C)C(CC(C)(C)O)C(=O)NC(C(C)C)C(=O)N(C)C(CC(C)C)C(=O)NC(C)C(=O)NC(C)C(=O)N(C)C(CC(C)C)C(=O)N(C)C(CC(C)C)C(=O)N(C)C(C(C)C)C(=O)N1C` [acetate, [(R)-2-(N,N-dimethylamino)ethylthio-Sar]3[4′-hydroxy-MeLeu]4 cyclosporin], for which the EC90 in series [1] is 300 nM. Further, in series [2], the 50% inhibitory concentration (IC50) is more than 2000 nM and the concentration for an effect of 90% (IC90) was more than 2000 nM.
In series [1], `C/C=C/C[C@@H](C)[C@@H](O)[C@H]1C(=O)N[C@@H](CC)C(=O)N(C)[C@H](OCCN(C)C)C(=O)N(C)[C@@H](CC(C)C)C(=O)N[C@@H](C(C)C)C(=O)N(C)[C@@H](CC(C)C)C(=O)N[C@@H](C)C(=O)N[C@H](C)C(=O)N(C)[C@@H](CC(C)C)C(=O)N(C)[C@@H](CC(C)C)C(=O)N(C)[C@@H](C(C)C)C(=O)N1C` [Compound C, 3-(2-N,N-dimethylaminoethoxy)cyclosporin] displayed an EC50 of 180 nM and an EC90 of 640 nM. Besides, in series [2], the half-maximal inhibitory concentration (IC50) is more than 3000 nM and the IC90 was more than 3000 nM.
For `C/C=C/C[C@@H](C)[C@@H](O)[C@H]1C(=O)N[C@@H](CC)C(=O)N(C)C(OC)C(=O)N(C)[C@@H](CC(C)C)C(=O)N[C@@H](C(C)C)C(=O)N(C)[C@@H](CC(C)C)C(=O)N[C@@H](C)C(=O)N[C@H](C)C(=O)N(C)[C@@H](CC(C)C)C(=O)N(C)[C@@H](CC(C)C)C(=O)N(C)[C@@H](C(C)C)C(=O)N1C` (stereo partly drawn) [A, 3-methoxycyclosporin], it took 220 nM to reach the 90% level in series [1] (EC90). In series [2], the IC50 was 2330 nM and the IC90 is more than 3000 nM.
In series [1], “3-(isopropoxy)-4-(gamma-hydroxymethylleucine)cyclosporin [V]” yielded a concentration for a half-maximal effect (EC50) of 360 nM and an EC90 of 1200 nM. The compound also showed an EC50 in series [3] of 440 nM.
In the case of `CC=CCC(C)C(O)C1C(=O)NC(CC)C(=O)N(C)C(OCC(CC)CC)C(=O)N(C)C(CC(C)C)C(=O)NC(C(C)C)C(=O)N(C)C(CC(C)C)C(=O)NC(C)C(=O)NC(C)C(=O)N(C)C(CC(C)C)C(=O)N(C)C(CC(C)C)C(=O)N(C)C(C(C)C)C(=O)N1C` (stereo not drawn) [Compound E, 3-(2-ethylbutoxy)cyclosporin], the IC50 in series [2] worked out at 15600 nM.
In series [1], `CC=CCC(C)C(O)C1C(=O)NC(CC)C(=O)N(C)C(SCCN(C)C)C(=O)N(C)C(CC(C)(C)O)C(=O)NC(C(C)C)C(=O)N(C)C(CC(C)C)C(=O)NC(C)C(=O)NC(C)C(=O)N(C)C(CC(C)C)C(=O)N(C)C(CC(C)C)C(=O)N(C)C(C(C)C)C(=O)N1C` [hydrochloride, [(R)-2-(N,N-dimethylamino)ethylthio-Sar]3[4′-hydroxy-MeLeu]4 cyclosporin] yielded a concentration for a half-maximal effect (EC50) of 110 nM and an EC90 of 380 nM. In series [2], the IC50 is more than 2000 nM and the 90% effect concentration (IC90) was more than 2000 nM.
In series [1], `C/C=C/C[C@@H](C)[C@@H](O)[C@H]1C(=O)N[C@@H](CC)C(=O)N(C)[C@H](OCCN)C(=O)N(C)[C@@H](CC(C)C)C(=O)N[C@@H](C(C)C)C(=O)N(C)[C@@H](CC(C)C)C(=O)N[C@@H](C)C(=O)N[C@H](C)C(=O)N(C)[C@@H](CC(C)C)C(=O)N(C)[C@@H](CC(C)C)C(=O)N(C)[C@@H](C(C)C)C(=O)N1C` [Compound B, 3-(2-aminoethoxy)cyclosporin] yielded an EC50 of 1180 nM and a concentration for an effect of 90% (EC90) of 2720 nM. Moreover, in series [2], the IC50 worked out at 6310 nM and the 90% effect concentration (IC90) was 20300 nM.
In the same order, the values of `C/C=C/C[C@@H](C)[C@@H](O)[C@H]1C(=O)N[C@@H](CC)C(=O)N(C)C(OCCN(C)C(C)C)C(=O)N(C)[C@@H](CC(C)C)C(=O)N[C@@H](C(C)C)C(=O)N(C)[C@@H](CC(C)C)C(=O)N[C@@H](C)C(=O)N[C@H](C)C(=O)N(C)[C@@H](CC(C)C)C(=O)N(C)[C@@H](CC(C)C)C(=O)N(C)[C@@H](C(C)C)C(=O)N1C` (stereo partly drawn) [J, 3-[2-(N-methyl-N-isopropylamino)ethoxy]cyclosporin] are 150 nM, 530 nM, 8200 nM and 19600 nM.
In the same order, the values of `C/C=C/C[C@@H](C)[C@@H](O)[C@H]1C(=O)N[C@@H](CC)C(=O)N(C)C(OCCO)C(=O)N(C)[C@@H](CC(C)C)C(=O)N[C@@H](C(C)C)C(=O)N(C)[C@@H](CC(C)C)C(=O)N[C@@H](C)C(=O)N[C@H](C)C(=O)N(C)[C@@H](CC(C)C)C(=O)N(C)[C@@H](CC(C)C)C(=O)N(C)[C@@H](C(C)C)C(=O)N1C` (stereo partly drawn) [G, 3-(2-hydroxyethoxy)cyclosporin] are less than 200 nM, 570 nM, 10300 nM and more than 20000 nM.
In the same order, the values of `C/C=C/C[C@@H](C)[C@@H](O)[C@H]1C(=O)N[C@@H](CC)C(=O)N(C)C(OCCNC)C(=O)N(C)[C@@H](CC(C)C)C(=O)N[C@@H](C(C)C)C(=O)N(C)[C@@H](CC(C)C)C(=O)N[C@@H](C)C(=O)N[C@H](C)C(=O)N(C)[C@@H](CC(C)C)C(=O)N(C)[C@@H](CC(C)C)C(=O)N(C)[C@@H](C(C)C)C(=O)N1C` (stereo partly drawn) [Compound I, 3-[2-(N-methylamino)ethoxy]cyclosporin] are 1010 nM, 1870 nM, 2830 nM and 17400 nM.
In series [1], “3-(ethoxy)-4-(gamma-hydroxymethylleucine)cyclosporin [W]” yielded an EC50 of 130 nM and a 90% effect concentration (EC90) of 510 nM. Also, the half-maximal effective concentration (EC50) in series [3] was found to be 680 nM.
In series [1], `CC=CCC(C)C(O)C1C(=O)NC(CC)C(=O)N(C)C(SCCN(C)C)C(=O)N(C)C(CC(C)(C)O)C(=O)NC(C(C)C)C(=O)N(C)C(CC(C)C)C(=O)NC(C)C(=O)NC(C)C(=O)N(C)C(CC(C)C)C(=O)N(C)C(CC(C)C)C(=O)N(C)C(C(C)C)C(=O)N1C` [phosphate, [(R)-2-(N,N-dimethylamino)ethylthio-Sar]3[4′-hydroxy-MeLeu]4 cyclosporin] registered an EC50 of 130 nM and an EC90 of 470 nM. Besides, in series [2], the IC50 is more than 2000 nM and the IC90 is more than 2000 nM.
In the case of `C/C=C/C[C@@H](C)[C@@H](O)[C@H]1C(=O)N[C@@H](CC)C(=O)N(C)C(OCC)C(=O)N(C)[C@@H](CC(C)C)C(=O)N[C@@H](C(C)C)C(=O)N(C)[C@@H](CC(C)C)C(=O)N[C@@H](C)C(=O)N[C@H](C)C(=O)N(C)[C@@H](CC(C)C)C(=O)N(C)[C@@H](CC(C)C)C(=O)N(C)[C@@H](C(C)C)C(=O)N1C` (stereo partly drawn) [M, 3-ethoxycyclosporin], in series [1], the response was half-maximal at 3350 nM (EC50) and the EC90 was determined as 6110 nM. Besides, in series [2], the half-maximal inhibitory concentration (IC50) was more than 20000 nM and the IC90 is more than 20000 nM.
Regarding `CC=CCC(C)C(O)C1C(=O)NC(CC)C(=O)N(C)C(OCCN2CCCCC2)C(=O)N(C)C(CC(C)C)C(=O)NC(C(C)C)C(=O)N(C)C(CC(C)C)C(=O)NC(C)C(=O)NC(C)C(=O)N(C)C(CC(C)C)C(=O)N(C)C(CC(C)C)C(=O)N(C)C(C(C)C)C(=O)N1C` (stereo not drawn) [K, 3-[2-(piperidin-1-yl)ethoxy]cyclosporin], in series [1], a half-maximal response (EC50) required 260 nM and the 90% effect concentration (EC90) came to 590 nM. Also, in series [2], the IC50 is 5500 nM and the IC90 was found to be 17800 nM.
In the same order, the values of `CC=CCC(C)C(O)C1C(=O)NC(CC)C(=O)N(C)C(SCCN(C)C)C(=O)N(C)C(CC(C)(C)O)C(=O)NC(C(C)C)C(=O)N(C)C(CC(C)C)C(=O)NC(C)C(=O)NC(C)C(=O)N(C)C(CC(C)C)C(=O)N(C)C(CC(C)C)C(=O)N(C)C(C(C)C)C(=O)N1C` [MeSO2, [(R)-2-(N,N-dimethylamino)ethylthio-Sar]3[4′-hydroxy-MeLeu]4 cyclosporin] are 160 nM, 500 nM, more than 2000 nM and more than 2000 nM.
As to “[(R)-2-(N,N-dimethylamino)ethylthio-Sar]3[4′-hydroxy-MeLeu]4 cyclosporin [citrate]”, in series [1], a half-maximal response (EC50) required 110 nM and the EC90 was 410 nM. In series [2], the half-inhibitory concentration (IC50) is more than 2000 nM and the IC90 is more than 2000 nM.
For the compound “[(R)-2-(N,N-dimethylamino)ethylthio-Sar]3[4′-hydroxy-MeLeu]4 cyclosporin [propionate]”, in series [1], the concentration giving a half-maximal response (EC50) was 100 nM and it took 320 nM to reach the 90% level (EC90). In series [2], the half-maximal inhibitory concentration (IC50) was more than 2000 nM and the 90% effect concentration (IC90) is more than 2000 nM.
`C/C=C/C[C@@H](C)[C@@H](O)[C@H]1C(=O)N[C@@H](CC)C(=O)N(C)[C@H](OCC(C)(C)C)C(=O)N(C)[C@@H](CC(C)C)C(=O)N[C@@H](C(C)C)C(=O)N(C)[C@@H](CC(C)C)C(=O)N[C@@H](C)C(=O)N[C@H](C)C(=O)N(C)[C@@H](CC(C)C)C(=O)N(C)[C@@H](CC(C)C)C(=O)N(C)[C@@H](C(C)C)C(=O)N1C` [F, 3-(2,2-dimethylpropoxy)cyclosporin] registered an EC50 in series [1] of 17000 nM. The IC50 in series [2] is more than 20000 nM.

One may read the EC90 as the point of the concentration-response curve where the effect stands at 90%. A word on the IC50: it is the concentration at which inhibition is half-maximal. What is called IC90 is the point of the concentration-response curve where the effect stands at 90%. Usually EC50 stands for the concentration that produces a half-maximal response. Low values mean higher potency in that assay, high ones lower potency in that assay.
